Results on twelve molecules are retold here after patent US4542219A, “Certain heterocyclic ammonio phosphate derivatives” (Takeda Chemical Industries, Ltd., priority 1981, dated 1985).

For one series, the system named is Botrytis cinerea. The series can be described thus: Antifungal activity, serial dilution method. The format is cell-based.
The next series has as its system Pyricularia oryzae. The series can be described thus: microbe, parasite or virus in culture. In kind it is cell-based.
Another series relates to Aspergillus niger. Nature of the series: Antifungal activity, serial dilution method. In kind it is cell-based.
In series [1] the test system is Helminthosporium sigmordeum. Nature of the series: Antifungal activity, serial dilution method. In kind it is cell-based.
The subject of another series is Saccharomyces cerevisiae. The series can be described thus: Antifungal activity, serial dilution method. In kind it is cell-based.
The subject of series [2] is Colletotrichum lagenarium. The series can be described thus: Antifungal activity, serial dilution method. The format is cell-based. As to conditions: Colletotrichum orbiculare.
The subject of the next series is Penicillium niger. Nature of the series: Antifungal activity, serial dilution method. In kind it is cell-based.
In the next series the test system is Sclerotinia sclerotiorum. Nature of the series: Antifungal activity, serial dilution method. The format is cell-based. As to conditions: kidney bean stem rot, 1% glucose-bouillon agar.
Another series relates to Cryptococcus neoformans. Nature of the series: Antimycotic activity, paper disk zone of inhibition. The format is cell-based. As to conditions: 48 h, 3 mg/ml, 8 mm paper disk, 37° C. for 2 days, read-out: Diameter of inhibition zone. As to the method: The antimycotic activity values presented in Table 2 were assayed using Cryptococcus neoformans as the test organism. Thus, a paper disk (8 mm dia.) was dipped into an aqueous solution of the test compound (3 mg/ml), dried in the air and set in position on an agar medium. The medium was incubated at 37° C. for 2 days, at the end of which time the diameter of the zone of inhibition was measured. When the diameter of the zone was not larger than 8 mm, 8-10 mm, 10-20 mm and larger than 20 mm, the activity was judged as -, ±, + and ++, respectively.

Another series concerns Tetrahymena pyriformis W. The series can be described thus: Antiprotozoal activity, broth dilution method. As to conditions: 28° C. for 44 to 48 hours, pH 7.0. In kind it is cell-based. As to the method: The antiprotozoal activity values given in Table 2 were assayed using Tetrahymena pyriformis W as the test organism and an assay medium composed of 20 g tryptose peptone (Difco), 1 g yeast extract, 2 g glucose, 1000 ml distilled water and 10 ml 1 M phosphate buffer, pH 7.0. Thus, the strain was incubated at 28° C. for 44 to 48 hours and the minimal inhibitory concentration (MIC) of the compound (I) was determined by the broth dilution method.

The subject of another series is Helminthosporium oryzae. Nature of the series: Antifungal activity, serial dilution method. As to conditions: Bipolaris oryzae. In kind it is cell-based.
In series [3] the test system is human promyelocytic leukemia cell HL-60. The series can be described thus: Cell proliferation inhibition and differentiation induction, human promyelocytic leukemia cell HL-60 (Test Example 1): proliferation. In kind it is cell-based. As to conditions: HL-60, 120 h, 5 days' culture, read-out: Cell proliferation inhibitory activity GD50. As to the method: The cell proliferation inhibitory activity (GD50) and differentiation inducing activity of the compound of this invention against human promyelocytic leukemia cell HL-60 are shown in Table 1. The assays were performed by the method described for example in R. Gallo et al, Blood. vol. 54, No. 3, 713 (1979).

For another series, the system named is MM46 mammarian carcinoma. Nature of the series: Antitumor activity against MM46 mammarian carcinoma. The format is in vivo, C3 H/He mice. As to conditions: 250 μg/mouse/day, once daily, eight days in total; control average 14.2 days. As to the method: MM46 mammarian carcinoma cells (1×10^5) was transplanted intraperitoneally to each of five C3 H/He mice group. From five days to two days before the transplantation and from two day to five days after the transplantation, eight days in total. 250 μg/mouse/day of the test compound was administered to the test group, once daily. Survival period of three of the test group was not less than 60 days, and that of the remaining two was 23 days in average. On the other hand, the average survival period of mice of the control group was 14.2 days.

The test system of another series is sarcoma 180. The series can be described thus: Antitumor activity against sarcoma 180. In kind it is in vivo, ICR mice. As to conditions: 500 μg/mouse.
Series [4] is described as follows: Hemolysis test (method of Gottfried et al). As to conditions: erythrocytes; in the presence of 5% human albumin; read-out: 50% hemolytic concentration. In kind it is cell-based. An excerpt: The compound (I) is of relatively low toxicity and has generally low hemolytic activity. […] In these compounds (I), the influence of the length of chain R^1 varies with the other moiety of the molecule.

The mark [5] stands for this setting: gray mold, 1% glucose-bouillon agar, read-out: MIC.
The mark [6] stands for this setting: black mold, 1% glucose-bouillon agar, read-out: MIC.
[7] abbreviates: rice stem rot, 1% glucose-bouillon agar, read-out: MIC.
The mark [8] stands for this setting: brewer's yeast, 1% glucose-bouillon agar, read-out: MIC.
Where [9] appears, read: cucumber anthracnose, 1% glucose-bouillon agar, read-out: MIC.
[10] abbreviates: blue mold, 1% glucose-bouillon agar, read-out: MIC.

The structures appear in SMILES notation. Read-outs that look alike come from different tables or passages of the source. A value given as a limit tells only on which side of the number the result lay.

Take `CCCCCCCCCCCCOCCOP(=O)([O-])OCC[N+](C)(C)C` [Production Example 4, 2-Dodecyloxyethyl 2-trimethylammonioethyl phosphate]: the MIC in the series with Botrytis cinerea (setting [5]) came out at 25 µg/mL; with Pyricularia oryzae it was 12.5 µg/mL; with Aspergillus niger (setting [6]), 25 µg/mL; in [1] (setting [7]), 25 µg/mL; in the series with Saccharomyces cerevisiae (setting [8]) it was 25 µg/mL; in [2] (setting [9]), 6.25 µg/mL. The MIC with Penicillium niger (setting [10]) was determined as 25 µg/mL; against Sclerotinia sclerotiorum, 100 µg/mL; with Tetrahymena pyriformis W it was 0.4 µg/mL; in the series on Helminthosporium oryzae it was 12.5 µg/mL. Besides, the zone of inhibition at 3000 µg/mL with Cryptococcus neoformans lay within 10 to 20 mm.

On to `CCCCCCCC/C=C\CCCCCCCCOCCOP(=O)([O-])OCC[N+](C)(C)C` [Production Example 3, 2-Oleyloxyethyl 2-trimethylammonioethyl phosphate], for which the MIC with Botrytis cinerea (setting [5]) worked out at 3.12 µg/mL; with Pyricularia oryzae, 1.56 µg/mL; with Aspergillus niger (setting [6]), 25 µg/mL; in series [1], 6.25 µg/mL; in the series with Saccharomyces cerevisiae it was 12.5 µg/mL; in series [2] it was 6.25 µg/mL. The MIC came to 50 µg/mL in the series with Penicillium niger (setting [10]), 100 µg/mL with Sclerotinia sclerotiorum, 0.4 µg/mL in the series with Tetrahymena pyriformis W and 6.25 µg/mL in the series with Helminthosporium oryzae. For the same molecule, in the series with Cryptococcus neoformans, the zone of inhibition at 3000 µg/mL was greater than 20 mm.

As for `CCCCCCCCCCCCCCCCCCOCCOP(=O)([O-])OCC[n+]1ccccc1` [Production Example 10, 2-Octadecyloxyethyl 2-pyridinioethyl phosphate], the IC50 in [3] came to 1.5 µg/mL. Besides, in the series with Tetrahymena pyriformis W, the MIC stood at 4 µg/mL. In the series with MM46 mammarian carcinoma, the “Average survival period of the remaining two of the test group (five mice)” value is 23 days and the “Survival period of three of the test group (five mice)” value is listed as “not less than 60 days”. In addition, the “survival rate of the test group against the control group T/C” value in the series on sarcoma 180 is on record as 310%. This molecule also came in with an Average survival period in the series on sarcoma 180 (four days before ip transplantation of 1×10^5 cells, control 9.6 days) of 29.8 days.

Consider `CCCCCCCCCCCCCCOCCOP(=O)([O-])OCC[N+](C)(C)CCCC(=O)OC` [Production Example 11, 2-Tetradecyloxyethyl 2-[N,N-dimethyl-N-(3-methoxycarbonylpropyl)]ammonioethyl phosphate], for which the IC50 in [3] worked out at 2.5 µg/mL. The molecule further gave an MIC with Tetrahymena pyriformis W of 4 µg/mL.

In the case of `CCCCCCCCCCCCCOCCOP(=O)([O-])OCC[N+](C)(C)C` [Production Example 2, 2-Tridecyloxyethyl 2-trimethylammonioethyl phosphate], the MIC came to 12.5 µg/mL in the series on Botrytis cinerea (setting [5]); 6.25 µg/mL against Pyricularia oryzae; 12.5 µg/mL in the series with Aspergillus niger (setting [6]); 6.25 µg/mL in series [1]; 6.25 µg/mL against Saccharomyces cerevisiae; 3.12 µg/mL in series [2]. The MIC in the series with Penicillium niger worked out at 25 µg/mL; in the series with Sclerotinia sclerotiorum it was 12.5 µg/mL; against Tetrahymena pyriformis W it was 0.4 µg/mL; against Helminthosporium oryzae, 6.25 µg/mL. Also, in series [4], the HC50 is roughly 80 µg/mL. In addition, the zone of inhibition at 3000 µg/mL with Cryptococcus neoformans was greater than 20 mm.

Regarding `CCCCCCCCCCCCCCOCCOP(=O)([O-])OCC[N+](C)(C)CCCC(=O)O` [Production Example 12, 2-Tetradecyloxyethyl 2-[N-(3-carboxypropyl)-N,N-dimethyl]ammonioethyl phosphate], the IC50 in [3] was determined as 1.5 µg/mL. Moreover, in the series with Tetrahymena pyriformis W, the MIC was found to be 0.4 µg/mL.

As for `CCCCCCCCCCCCCCCOCCOP(=O)([O-])OCC[n+]1ccccc1` [Production Example 8, 2-Pentadecyloxyethyl 2-pyridinioethyl phosphate], in [3], the IC50 was determined as 3.4 µg/mL. Further, the zone of inhibition at 3000 µg/mL with Cryptococcus neoformans is 10 to 20 mm. In the series on Tetrahymena pyriformis W, this molecule gave an MIC of 4 µg/mL.

As for `CCCCCCCCCCCCCCOCCOP(=O)(O)OCCN` [Production Example 5, 2-Tetradecyloxyethyl 2-aminoethyl phosphate], the MIC with Botrytis cinerea is 50 µg/mL; in the series with Pyricularia oryzae, 25 µg/mL; in the series on Aspergillus niger (setting [6]), 25 µg/mL; in series [1] (setting [7]), greater than 100 µg/mL; in the series on Saccharomyces cerevisiae (setting [8]) it was 25 µg/mL; in [2] (setting [9]), 25 µg/mL. In addition, the MIC in the series with Penicillium niger (setting [10]) was 50 µg/mL; in the series with Sclerotinia sclerotiorum it was 100 µg/mL; against Tetrahymena pyriformis W, 4 µg/mL; in the series with Helminthosporium oryzae, greater than 100 µg/mL. Besides, the zone of inhibition at 3000 µg/mL in the series with Cryptococcus neoformans was 8 to 10 mm.

Regarding `CCCCCCCCCCCCCCCCCCOCCOP(=O)(O)OCCN` [Production Example 6, 2-Octadecyloxyethyl 2-aminoethyl phosphate], the IC50 in [3] is 3 µg/mL. Moreover, the zone of inhibition at 3000 µg/mL in the series on Cryptococcus neoformans was 8 to 10 mm. In the series on Tetrahymena pyriformis W, this molecule showed an MIC greater than 4 µg/mL.

Consider `CCCCCCCCCCCCCCOCCOP(=O)([O-])OCC[N+](C)(C)C` [Production Example 1, 2-Tetradecyloxyethyl 2-trimethylammonioethyl phosphate], for which the MIC in the series with Botrytis cinerea is 12.5 µg/mL; against Pyricularia oryzae, 3.12 µg/mL; with Aspergillus niger, 12.5 µg/mL; in [1] it was 3.12 µg/mL; against Saccharomyces cerevisiae it was less than 3.12 µg/mL; in series [2], 3.12 µg/mL. Moreover, the MIC in the series on Penicillium niger is 12.5 µg/mL; against Sclerotinia sclerotiorum, 50 µg/mL; with Tetrahymena pyriformis W, 0.4 µg/mL; against Helminthosporium oryzae it was 12.5 µg/mL. The IC50 in series [3] stood at 3.8 µg/mL. In addition, the zone of inhibition at 3000 µg/mL in the series on Cryptococcus neoformans is greater than 20 mm.

For `CCCCCCCCCCCCCCOCCOP(=O)([O-])OCC[n+]1ccccc1` [Production Example 9, 2-Tetradecyloxyethyl 2-pyridinioethyl phosphate], the IC50 in series [3] came to 4.1 µg/mL. Also, the zone of inhibition at 3000 µg/mL in the series on Cryptococcus neoformans is greater than 20 mm. The MIC in the series on Tetrahymena pyriformis W was found to be 4 µg/mL.

In the case of `CCCCCCCCCCCCCCCOCCOP(=O)([O-])OCC[N+](C)(C)C` [Production Example 7, 2-Pentadecyloxyethyl 2-trimethylammonioethyl phosphate], the IC50 in series [3] was 1.2 µg/mL. Also, the zone of inhibition at 3000 µg/mL with Cryptococcus neoformans was in the range of 10 to 20 mm. This molecule registered an MIC in the series with Tetrahymena pyriformis W of no more than 1 µg/mL.

For orientation: zone of inhibition means the extent of the growth-free halo in a diffusion test.
